Measurements taken from paper PMC12892976, “Alkylation-based optimization of antifungal FPPS inhibitors yields a potent, broad-spectrum lipophilic zoledronate derivative” (mBio, 2025).
Read-outs that look alike come from different tables or passages of the source.

Columns and labels:
[1] = test system: HEK-293T cells; assay: MTT reduction cytotoxicity assay; type: cell-based; conditions: Homo sapiens, HEK-293T, 72 h, MTT, 72 h
[2] = test system: eight fungal species; assay: MIC/MFC summary across the eight fungal species of Table 1; type: cell-based
Description: The antifungal activity of these compounds was evaluated according to CLSI guidelines ([16]).

[3] = test system: Trichophyton rubrum; assay: checkerboard drug interaction (FICI, MICc);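 further: simplified diagonal checkerboard screen pairing azole antifungals with FPPS inhibitors, FICI calculated under the Loewe additivity model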; type: cell-based; conditions: T. rubrum
Description: (§1) Drug interactions between antifungals and FPPS inhibitors were investigated using a simplified checkerboard diagonal screening method ([45]). […] FICIs were determined according to the Loewe additivity model ([17]).

[4] = test system: Cryptococcus neoformans; assay: MIC/MFC broth microdilution (CLSI); conditions: Cryptococcus neoformans;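 further: susceptibility testing followed the CLSI M27-Ed4 broth microdilution document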
Description: (§2) Antifungal susceptibility was determined by broth microdilution according to the CLSI guidelines described in M27-Ed4 ([16]). […] MFC was determined by back-plating drug-treated cultures from MIC broths onto SDA plates. The MFC was defined as the lowest concentration from which no colonies could be cultured.

[5] = test system: Saccharomyces cerevisiae; assay: MIC/MFC broth microdilution (CLSI); type: cell-based; conditions: Saccharomyces cerevisiae S288c
Description: as §2

[6] = test system: Candida glabrata; assay: checkerboard drug interaction (FICI, MICc);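 on all read-outs here: simplified diagonal checkerboard screen pairing antifungals with FPPS inhibitors, FICI calculated under the Loewe additivity model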; type: cell-based; conditions: C. glabrata; for INH FD (MIC-MICc fold decrease): fold decrease of inhibitor MIC
Description: as §1

[7] = test system: Candida albicans; assay: checkerboard drug interaction (FICI, MICc);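 on all read-outs here: antifungal plus FPPS inhibitor combinations on Candida albicans tested by a simplified diagonal checkerboard screen, with FICI calculated under the Loewe additivity model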; type: cell-based; conditions: C. albicans; for INH FD (MIC-MICc fold decrease): fold decrease of inhibitor MIC
Description: as §1

[8] = test system: Aspergillus flavus; assay: checkerboard drug interaction (FICI, MICc);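 further: simplified diagonal checkerboard screen pairing azole antifungals with FPPS inhibitors, FICI calculated under the Loewe additivity model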; type: cell-based; set-up: INH MICc (KET:INH) / INH MICc (FLC:INH): unit not given beside the values; conditions: A. flavus
[9] = test system: eight fungal species; assay: checkerboard interaction with azoles, summary across the eight species; type: cell-based; conditions: geometric mean MIC in combination with azoles
Source text: Synergy between lipophilic FPPS inhibitors and azole antifungals was investigated by determining the fractional inhibitory concentration index (FICI) (Fig. 2; Table S1 Fig. S1) ([17]). […]. Derivatives PLA9 and 11, and PDA9, 11, and 12 antagonized azoles in C. albicans, C. neoformans, and C. deuterogattii, yet were largely synergistic in C. glabrata and S. cerevisiae. […].

[10] = test system: Cryptococcus deuterogattii; assay: checkerboard drug interaction (FICI, MICc);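 on all read-outs here: simplified diagonal checkerboard screen pairing antifungal drugs with FPPS inhibitors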; type: cell-based; conditions: C. deuterogattii; for INH FD (MIC-MICc fold decrease): fold decrease of inhibitor MIC
Description: as §1

[11] = test system: Aspergillus fumigatus; assay: checkerboard drug interaction (FICI, MICc); type: cell-based;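 further: simplified diagonal checkerboard screen pairing antifungals with FPPS inhibitors against Aspergillus fumigatus, with FICI calculated under the Loewe additivity model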
Description: as §1

[12] = test system: Trichophyton rubrum; assay: MIC/MFC broth microdilution (CLSI); conditions: Trichophyton rubrum
Description: as §2

[13] = test system: Aspergillus flavus; assay: MIC/MFC broth microdilution (CLSI); conditions: ATCC204304
Description: as §2

[14] = test system: Saccharomyces cerevisiae; assay: checkerboard drug interaction (FICI, MICc); type: cell-based; set-up: INH MICc / INH MICc (ITR:INH) / INH MICc (KET:INH) / INH MICc (FLC:INH): unit not given beside the values;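 further: simplified diagonal checkerboard screen pairing antifungals with FPPS inhibitors, FICI calculated under the Loewe additivity model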
[15] = test system: Cryptococcus neoformans; assay: checkerboard drug interaction (FICI, MICc);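 on all read-outs here: antifungal plus FPPS inhibitor pairs tested against Cryptococcus neoformans by simplified diagonal checkerboard screening, FICI computed under the Loewe additivity model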; type: cell-based; conditions: C. neoformans; for INH FD (MIC-MICc fold decrease): fold decrease of inhibitor MIC
Description: as §1

[16] = test system: Aspergillus fumigatus; assay: MIC/MFC broth microdilution (CLSI); conditions: ATCC204305
Description: as §2

[17] = test system: Cryptococcus deuterogattii; assay: MIC/MFC broth microdilution (CLSI); conditions: Cryptococcus deuterogattii;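 further: broth microdilution per CLSI M27-Ed4. MFC is the lowest concentration yielding no colonies when MIC broths are subcultured onto SDA plates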
Description: as §2

[18] = test system: Candida albicans; assay: MIC/MFC broth microdilution (CLSI); type: cell-based; conditions: Candida albicans SC5314
Description: as §2

[19] = test system: Candida glabrata; assay: MIC/MFC broth microdilution (CLSI); conditions: Nakaseomyces glabratus, CBS138;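 further: broth microdilution following CLSI M27-Ed4, MFC taken as the lowest drug level yielding no growth once MIC wells were subcultured on SDA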
Description: as §2

[20] = Fractional Inhibitory Concentration Index, fluconazole + inhibitor
[21] = Fractional Inhibitory Concentration Index, itraconazole + inhibitor
[22] = Fractional Inhibitory Concentration Index, ketoconazole + inhibitor
[23] = MIC of the inhibitor in combination with fluconazole
[24] = MIC of the inhibitor in combination with itraconazole
[25] = MIC of the inhibitor in combination with ketoconazole
[26] = MIC-MICc fold decrease of fluconazole, negative = increase
[27] = MIC-MICc fold decrease of itraconazole, negative = increase
[28] = MIC-MICc fold decrease of ketoconazole, negative = increase
[29] = MIC-MICc fold decrease of the inhibitor, with fluconazole
[30] = MIC-MICc fold decrease of the inhibitor, with itraconazole
[31] = MIC-MICc fold decrease of the inhibitor, with ketoconazole
[32] = FLC:INH combination, MIC of the inhibitor in combination with FLC
[33] = FLC:INH combination, fold decrease of FLC MIC
[34] = ITR:INH combination, MIC of the inhibitor in combination with ITR
[35] = ITR:INH combination, fold decrease of ITR MIC
[36] = KET:INH combination, MIC of the inhibitor in combination with KET
[37] = KET:INH combination, fold decrease of KET MIC

CCCCCCCCCCCCN1CCC[C@H]1C(=O)N[C@@H](CC(=O)OC)C(=O)OC [dmPLA12]
-4: ITR FD (MIC-MICc fold decrease) [7, 35]
64: INH MICc (ITR:INH) [8, 24] | INH FD (KET:INH) [8, 31] | INH MICc (KET:INH) [11, 25] | INH FD (ITR:INH) [11, 30]
0.52: FICI (KET:INH) [8, 22] | FICI (ITR:INH) [11, 21]
1.13: FICI (FLC:INH) [3, 20] | FICI (KET:INH) [3, 22]
-2: KET FD (MIC-MICc fold decrease) [7, 37] | INH FD (MIC-MICc fold decrease) ([15]; FLC:INH combination)
8 µg/mL: MFC [17] | MIC [17]
0.38: FICI ([6]; ITR:INH combination) | FICI ([10]; FLC:INH combination) | FICI (KET:INH) [14, 22]
0.63: FICI ([10]; ITR:INH combination)
1.06: FICI (ITR:INH) [3, 21] | FICI ([7]; FLC:INH combination)
32 µg/mL: MIC [16]
1: INH FD (FLC:INH) [3, 29] | INH FD (ITR:INH) [3, 30] | INH FD (KET:INH) [3, 31] | FICI ([6]; FLC:INH combination) | FLC FD (MIC-MICc fold decrease) [7, 33] | FLC FD (FLC:INH) [8, 26] | FICI (KET:INH) [11, 22] | INH FD (FLC:INH) [11, 29] | INH MICc (ITR:INH) [14, 24] | INH MICc (KET:INH) [14, 25] | FLC FD (MIC-MICc fold decrease) [15, 33] | INH FD (MIC-MICc fold decrease) ([15]; ITR:INH combination)
16 µg/mL: MFC [4] | MIC [4] | MIC [12]
11.3: GM fungal MICc [9]
0.75: FICI ([6]; KET:INH combination) | FICI (FLC:INH) [14, 20] | FICI (ITR:INH) [14, 21] | FICI ([15]; KET:INH combination)
4: ITR FD (MIC-MICc fold decrease) [6, 35] | INH MICc [6, 36] | INH FD (MIC-MICc fold decrease) ([6]; KET:INH combination) | INH FD (MIC-MICc fold decrease) ([7]; ITR:INH combination) | INH MICc (KET:INH) [8, 25] | ITR FD (ITR:INH) [8, 27] | INH FD (ITR:INH) [8, 30] | FLC FD (MIC-MICc fold decrease) [10, 33] | FLC FD (FLC:INH) [14, 26] | INH FD (ITR:INH) [14, 30] | INH FD (KET:INH) [14, 31] | KET FD (MIC-MICc fold decrease) [15, 37]
> 128 µg/mL: MFC [12] | MFC [13] | MIC [13] | MFC [16] | MFC [18] | MIC [18] | MFC [19] | MIC [19]
0.5: FICI (ITR:INH) [8, 21]
0.19: FICI ([10]; KET:INH combination)
1.5: FICI (FLC:INH) [8, 20] | FICI (FLC:INH) [11, 20] | FICI ([15]; ITR:INH combination)
2.13: FICI ([7]; KET:INH combination)
3: FICI ([15]; FLC:INH combination)
16: INH MICc (FLC:INH) [3, 23] | INH MICc (ITR:INH) [3, 24] | INH MICc (KET:INH) [3, 25] | ITR FD (ITR:INH) [3, 27] | INH FD (MIC-MICc fold decrease) ([7]; FLC:INH combination) | INH MICc [7, 36] | INH MICc [10, 32] | INH MICc [10, 34] | INH MICc [10, 36] | KET FD (MIC-MICc fold decrease) [10, 37] | INH MICc [15, 34]
2: FLC FD (MIC-MICc fold decrease) [6, 33] | INH FD (MIC-MICc fold decrease) ([6]; FLC:INH combination) | INH MICc [6, 34] | KET FD (MIC-MICc fold decrease) [6, 37] | KET FD (KET:INH) [8, 28] | INH FD (FLC:INH) [8, 29] | ITR FD (MIC-MICc fold decrease) [10, 35] | INH MICc (ITR:INH) [11, 24] | FLC FD (FLC:INH) [11, 26] | ITR FD (ITR:INH) [11, 27] | KET FD (KET:INH) [11, 28] | INH FD (KET:INH) [11, 31] | INH MICc (FLC:INH) [14, 23] | ITR FD (ITR:INH) [14, 27] | INH FD (FLC:INH) [14, 29] | ITR FD (MIC-MICc fold decrease) [15, 35] | INH FD (MIC-MICc fold decrease) ([15]; KET:INH combination)
69.8 µg/mL: MFC ([2]; across eight species, read-out: Geometric mean MFC)
128: INH MICc (FLC:INH) [8, 23] | INH MICc (FLC:INH) [11, 23]
38.1 µg/mL: MIC ([2]; geometric mean across eight species, read-out: GM fungal MIC) | MIC ([2]; read-out: Geometric mean MIC)
8: FLC FD (FLC:INH) [3, 26] | KET FD (KET:INH) [3, 28] | INH MICc [6, 32] | INH FD (MIC-MICc fold decrease) ([6]; ITR:INH combination) | INH MICc [7, 32] | INH FD (MIC-MICc fold decrease) ([7]; KET:INH combination) | INH FD (MIC-MICc fold decrease) ([10]; FLC:INH combination) | INH FD (MIC-MICc fold decrease) ([10]; ITR:INH combination) | INH FD (MIC-MICc fold decrease) ([10]; KET:INH combination) | KET FD (KET:INH) [14, 28] | INH MICc [15, 36]
4 µg/mL: MFC [5] | MIC [5]
32: INH MICc [7, 34] | INH MICc [15, 32]
≥4: FICI ([7]; ITR:INH combination)
2.01 µg/mL: IC50 ([1]; HEK-293T cells, read-out: IC50) | IC50 ([1]; read-out: HEK IC50)
